Measurements taken from patent US20150105349A1, “(R)-(-)-1,2-propanediol compositions and methods” (priority 2013, published 2015).

Legend:
philtrum skin = philtrum skin cooling bioassay (subjective coolness rating 0-3); assay type: in vivo, human; details: 49% distilled water, 1% ethanol
Source text: The term “alcoholic solvent” refers to a chemical with one to four carbons with at least one hydroxyl group attached to a carbon atom. A reliable place for topical application is the skin above the upper lip (above the vermilion border of the lips), on the philtrum, lateral to the philtrum until the nasolabial folds, and on the lower nostrils (subnasale). This part of the face is known to be densely innervated with cold receptors, second only to the surfaces of the eyeball and anogenitalia. Tingling, cool and cold sensations from the skin may be experienced and rated for time of onset and intensity.
The intervals for recording sensations are 5 to 10 minutes, until two successive zeros are obtained. The results (shown in the Figures) are averaged values of 4 to 6 separate trials in the same individual. The data are plotted using SigmaPlot (Systat Software, Point Richmond, Calif.) and a smoothing function with a negative exponential was used for analysis and statistical fit of the results. The onset of drug action is taken as the time to reach 2 units of coolness intensity, and offset of drug action is the time when coolness intensity drops below 2, after previously surpassing 2 units. […] The duration of cooling action is defined as the offset time minus the onset time and the primary index of effect. As described in Examples, the test compounds were tested at 2 to 10 mg/mL of vehicle.
For assays on the skin, the cooling agent(s) was dissolved in the alcoholic solvent to yield a 2, 2.5, 3, 5 or 10 mg/mL solution. Using a cotton-tipped applicator (e.g. Q-tips®) 0.10 to 0.25 mL of the test solution was applied to the skin above the upper lip, on the philtrum, and lateral to the philtrum up to the nasolabial folds, and the onset and duration of cooling sensations noted. […] The interval for recording sensations was at 5 to 10 minute intervals, until at least two successive zeros were obtained. The results were averaged values of 3 to 6 separate trials in the same individual. The “onset” is the time taken to reach a coolness intensity value of 2. […] The “off-set” is when the coolness intensity drops below 2, and the duration is the time of off-set minus the time of onset. The area under the curve (AUC) gives an estimate of the intensity and duration of drug action and can be obtained from the plotted data using SigmaPlot (Systat Software, Point Richmond, Calif.). The AUC unit is the product of cooling intensity x min.

[1] = molecular target: T1, cloned hTRPM8 channel (human TRPM8 gene, expressed in CHO cells) (Homo sapiens, UniProt Q7Z2W7); experiment: agonist activity on cloned hTRPM8 channel, Fluo-8 calcium kit, FLIPR; assay type: cell-based; details: TRPM8 receptor assay
T1 construct: host or cells: CHO cells
Protocol: The in vitro effects of test articles were evaluated on cloned hTRPM8 channel (encoded by the human TRPM8 gene, expressed in CHO cells) using a Fluo-8 calcium kit and a Fluorescence Imaging Plate Reader (FLIPR^TETRA™) instrument. […] The total number of carbons in these trialkylphosphine oxides ranged from 12 to 15.
To further examine solvent-receptor interactions, stock solutions of 1-7 [1-(Diisopropyl-phosphinoyl)-heptane] were prepared in dimethyl sulfoxide (DMSO) or DMSO containing 10% or 30% by volume of the three isomers of 1,2-propanediol, (R/S-PD, R-PD, and S-PD) and stored frozen. Six dose levels were tested ranging from 0.003 to 3 μM. Ten μl of the test article solution were added to 40 μl of cells in HBPS in glass-lined 384-well compound plates, and placed into the FLIPR instrument for the fluorescence readout (Molecular Devices Corporation, Union City, Calif.).

[2] = tested on: itchy scalp, seborrheic dermatitis; experiment: topical application to itchy scalp in seborrheic dermatitis, one subject; assay type: in vivo, human; details: 10 mg/mL in 12% (S)-1,2-propanediol, 37% (R)-1,2-propanediol, 1% ethanol, 50% water
Protocol: A subject with severe seborrheic dermatitis complained of an itchy scalp which was not resolved with anti-dandruff shampoos. […] The delivery was made using a 20 mL reservoir bottle capped with a Yorker spout. They remarked that routine application of the solution on an “as needed basis” stopped the itch for 6 to 8 hours and repeat applications for one week allowed their scalp to feel refreshed and normal. They proposed to pay for a continued supply of the solution.

[3] = tested on: periorbital skin and skin above the cheekbone; experiment: cosmetic wipe over periorbital skin and skin above the cheekbone, six female subjects; assay type: in vivo, human; details: 10 mg/mL in water (50%), 10% (S)-, 40% (R)-1,2-propanediol
Protocol: Six female subjects working at a cosmetics company volunteered to try topical applications of 1-7 and/or 1-8, formulated at 10 mg/mL in water (50%) and 10% (S)-1,2-propanediol, 40% (R)-1,2-propanediol wt/wt. The liquid was put on a cotton square and wiped over the periorbital skin and the skin above the cheekbone. All the subjects remarked on a refreshing coolness on the skin at the sites of application within 2 min after application. There was a “wow” effect, that was considered pleasant and stimulating. […] Four of the six subjects said they felt more “awake and energetic.”

T1 sequence (Q7Z2W7 whole entry): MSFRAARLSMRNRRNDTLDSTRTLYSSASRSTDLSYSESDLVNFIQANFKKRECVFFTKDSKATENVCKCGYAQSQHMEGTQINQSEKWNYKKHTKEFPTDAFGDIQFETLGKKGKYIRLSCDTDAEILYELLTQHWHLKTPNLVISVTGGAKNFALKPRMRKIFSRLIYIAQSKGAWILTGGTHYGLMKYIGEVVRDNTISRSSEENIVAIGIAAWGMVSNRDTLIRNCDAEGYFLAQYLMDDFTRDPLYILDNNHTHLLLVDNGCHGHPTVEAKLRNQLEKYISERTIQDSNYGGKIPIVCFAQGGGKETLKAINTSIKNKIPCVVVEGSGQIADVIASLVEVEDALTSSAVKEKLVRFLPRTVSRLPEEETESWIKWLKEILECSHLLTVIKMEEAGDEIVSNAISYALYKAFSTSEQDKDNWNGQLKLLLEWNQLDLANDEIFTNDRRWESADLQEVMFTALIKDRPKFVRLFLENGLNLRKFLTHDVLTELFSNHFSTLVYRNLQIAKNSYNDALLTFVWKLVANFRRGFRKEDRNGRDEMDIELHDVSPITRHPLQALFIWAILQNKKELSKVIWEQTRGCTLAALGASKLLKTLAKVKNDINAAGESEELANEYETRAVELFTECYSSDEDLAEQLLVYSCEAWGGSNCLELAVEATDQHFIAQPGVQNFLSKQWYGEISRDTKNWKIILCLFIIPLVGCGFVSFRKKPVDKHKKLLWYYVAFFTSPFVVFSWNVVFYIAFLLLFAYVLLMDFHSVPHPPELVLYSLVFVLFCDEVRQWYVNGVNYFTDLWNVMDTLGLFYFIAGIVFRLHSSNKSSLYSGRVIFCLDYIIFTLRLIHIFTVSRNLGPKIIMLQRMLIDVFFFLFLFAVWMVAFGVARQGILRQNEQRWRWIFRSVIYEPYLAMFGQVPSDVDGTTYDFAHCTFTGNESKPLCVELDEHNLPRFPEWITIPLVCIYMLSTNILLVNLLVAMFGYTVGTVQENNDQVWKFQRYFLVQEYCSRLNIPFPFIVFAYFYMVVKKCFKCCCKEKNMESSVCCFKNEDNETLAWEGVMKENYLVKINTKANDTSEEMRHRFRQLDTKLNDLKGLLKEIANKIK

Potency Relative to I-menthol [1]: 5.4
EC50 ([1]; read-out: EC50 μM (95% C, L.)): 0.7 µM
SMILES: CCCCCCCCP(=O)(C(C)C)C(C)C [1-8]
Ratio of AUC 75/25% R/S to 25/75% R/S (fold increase in cooling activity) (philtrum skin): 1.5
duration for which itch was stopped [2]: 6 to 8 h
irritation or redness on the skin after applications [3]: no irritation or redness
time facial skin felt cool and dry after application ([3]; all subjects): at least one hour
